Reference: ChEMBL document CHEMBL1141925, “Carbonic anhydrase inhibitors. Inhibition of the cytosolic and tumor-associated carbonic anhydrase isozymes I, II, and IX with a series of 1,3,4-thiadiazole- and 1,2,4-triazole-thiols” (Bioorg Med Chem Lett, 2005)

What was measured:
[1] = biological target: Carbonic anhydrase 9 (Homo sapiens, UniProt Q16790); test: Inhibitory constant against human Carbonic anhydrase IX
[2] = biological target: Carbonic anhydrase 1 (Homo sapiens, UniProt P00915)
[3] = biological target: Carbonic anhydrase 2 (Homo sapiens, UniProt P00918)
Description: Inhibitory constant against human Carbonic anhydrase II

Chain of Carbonic anhydrase 1 (P00915 whole entry): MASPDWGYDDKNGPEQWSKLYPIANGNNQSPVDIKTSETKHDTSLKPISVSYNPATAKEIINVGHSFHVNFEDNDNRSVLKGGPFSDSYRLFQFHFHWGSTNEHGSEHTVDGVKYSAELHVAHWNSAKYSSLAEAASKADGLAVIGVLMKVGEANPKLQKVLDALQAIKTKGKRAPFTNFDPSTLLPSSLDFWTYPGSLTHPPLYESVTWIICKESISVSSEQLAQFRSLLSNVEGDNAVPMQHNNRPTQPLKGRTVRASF

| Compound | Ki [1] [µM] | Ki [2] [µM] | Ki [3] [µM] |
| --- | --- | --- | --- |
| CN(C)c1cccc2c(S(=O)(=O)Nc3nnc(S)s3)cccc12 | 296 | – | – |
| O=C(O)c1cccnc1C(=O)Nc1nnc(S)s1 | 242 | – | – |
| Cc1ccc(-n2c(-c3ccc(S(=O)(=O)c4ccc(Br)cc4)cc3)n[nH]c2=S)cc1 | 60.4 | 249 | 251 |
| CCCn1c(-c2ccc(S(=O)(=O)c3ccc(Cl)cc3)cc2)n[nH]c1=S | 9.8 | 548 | 618 |
| CCCCn1c(-c2ccc(S(=O)(=O)c3ccc(Cl)cc3)cc2)n[nH]c1=S | 96.8 | 273 | 227 |
| Cc1cccc(-n2c(-c3ccc(S(=O)(=O)c4ccc(Br)cc4)cc3)n[nH]c2=S)c1 | 320 | 254 | 301 |
| O=C(Nc1nnc(S)s1)NS(=O)(=O)Nc1nnc(S)s1 | 322 | – | – |
| O=C(Nc1ccc(Cl)c(Cl)c1)Nc1nnc(S)s1 | 271 | – | – |
| CCCCn1c(-c2ccc(S(=O)(=O)c3ccc(Br)cc3)cc2)n[nH]c1=S | 11.5 | – | – |
| CCCn1c(S)nnc1-c1ccc(S(=O)(=O)c2ccccc2)cc1 | 119 | 290 | 276 |
| O=[N+]([O-])c1ccccc1S(=O)(=O)Nc1n[nH]c(=S)s1 | 315 | 303 | 230 |
| O=C(Nc1nnc(S)s1)N(c1ccccc1)c1ccccc1 | 271 | – | – |

Continued, values first:

| Ki [1] [µM] | Ki [2] [µM] | Ki [3] [µM] | Compound |
| --- | --- | --- | --- |
| 256 | – | – | O=[N+]([O-])c1ccc(SNc2n[nH]c(=S)s2)cc1 |
| 306 | – | – | O=C(Nc1nnc(S)s1)c1ccccn1 |
| 312 | 308 | 129 | O=C(Nc1nnc(S)s1)c1c(F)c(F)c(F)c(F)c1F |
| – | 415 | 604 | CCCCn1c(S)nnc1-c1ccc(S(=O)(=O)c2ccccc2)cc1 |
| 9.3 | – | – | Nc1nnc(S)s1 |
| 9.5 | 4.5 | 8.8 | CC(=O)Nc1nnc(S)s1 |
| 772 | 508 | 382 | CCCn1c(-c2ccc(S(=O)(=O)c3ccc(Br)cc3)cc2)n[nH]c1=S |
